Experimental data taken from PubChem BioAssay (NCI).
Values joined by “and” are separate entries in the source; they are usually repeats but may differ in a detail not shown here. Identical values can stand only once.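 Method: 48-hour compound exposure of cells in 96-well plates, five concentrations, linear interpolation of endpoints. GI50 is the concentration that inhibits growth by half. TGI marks complete inhibition of growth.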

Assays:
Assay in all cases: DTP human tumour cell line panel, 48 h
T-47D breast = tested on: T-47D breast
NCI/ADR-RES ovarian = tested on: NCI/ADR-RES ovarian
NCI-H23 lung = tested on: NCI-H23 lung
SNB-75 CNS = tested on: SNB-75 CNS
MDA-MB-231 breast = tested on: MDA-MB-231 breast
SK-MEL-28 melanoma = tested on: SK-MEL-28 melanoma
SN12C renal = tested on: SN12C renal
SK-OV-3 ovarian = tested on: SK-OV-3 ovarian
NCI-H460 lung = tested on: NCI-H460 lung
HT29 colon = tested on: HT29 colon
MALME-3M melanoma = tested on: MALME-3M melanoma
LOX IMVI melanoma = tested on: LOX IMVI melanoma
PC-3 prostate = tested on: PC-3 prostate

| SMILES | TGI (T-47D breast) | TGI (NCI/ADR-RES ovarian) | TGI (NCI-H23 lung) | TGI (SNB-75 CNS) | TGI (MDA-MB-231 breast) | TGI (SK-MEL-28 melanoma) | TGI (SN12C renal) | TGI (SK-OV-3 ovarian) | TGI (NCI-H460 lung) | TGI (HT29 colon) | TGI (MALME-3M melanoma) | TGI (LOX IMVI melanoma) | TGI (PC-3 prostate) | GI50 (MALME-3M melanoma) | GI50 (SNB-75 CNS) | GI50 (LOX IMVI melanoma) | GI50 (SK-MEL-28 melanoma) | GI50 (SK-OV-3 ovarian) | GI50 (NCI-H460 lung) | GI50 (PC-3 prostate) |
| --- | --- | --- | --- | --- | --- | --- | --- | --- | --- | --- | --- | --- | --- | --- | --- | --- | --- | --- | --- | --- |
| NC(CCOCCP(=O)(O)CCOCCC(N)C(=O)O)C(=O)O (stereo unspecified) | > 100 µM | > 100 µM | > 100 µM | > 100 µM | > 100 µM | > 100 µM | > 100 µM | > 100 µM | > 100 µM | > 100 µM | – | – | – | – | – | – | – | – | – | – |
| NC(Cc1ccccc1)(C(=O)O)C(=O)O | > 100 µM | > 100 µM | > 100 µM | – | > 100 µM | > 100 µM | > 100 µM | > 100 µM | > 100 µM | > 100 µM | > 100 µM | > 100 µM | > 100 µM | – | – | – | – | – | – | – |
| CC(C)C1OC(/C=C/c2ccccc2)OCC1(C)C (stereo unspecified) | > 100 µM | > 100 µM | 98.9 µM | 78.6 µM | 94.7 µM | > 100 µM | 44 µM | > 100 µM | 39.9 µM | > 100 µM | 25.8 µM | 36.6 µM | > 100 µM | – | – | – | – | – | – | – |
| O=C1OCc2cccc3c2-c2c1cccc2C(=O)OC3 | – | – | > 100 µM | – | – | > 100 µM | – | > 100 µM | – | > 100 µM | > 100 µM | – | – | – | – | – | – | – | – | – |
| N=C(N)SCc1cccc2c(=O)cc(-c3ccccc3)oc12 | 15.9 µM | > 100 µM | 31.3 µM | 19.4 µM | 21.4 µM | 6.37 µM | 25.9 µM | 30.5 µM | 22.9 µM | 24.8 µM | 27.2 µM | 28.3 µM | 17.3 µM | – | – | – | – | – | – | – |
| C/C(=C\c1ccc(Cl)c(Cl)c1)[N+](=O)[O-] | – | – | 5.36 µM | – | 3.94 µM | 3.14 µM and 4.81 µM | 4.08 µM | 29.8 µM | 14 µM and > 100 µM | 5.9 µM | 3.36 µM and 3.83 µM | 2.62 µM and 0.955 µM | 3.81 µM | 1.61 µM | 1.46 µM | 1.19 µM | 1.75 µM | 16.3 µM | 3.15 µM | 1.85 µM |
| COc1cccc(CC2Cc3ccccc3CC(=O)N2)c1 (stereo unspecified) | > 100 µM | > 100 µM | > 100 µM | > 100 µM | 79.2 µM | > 100 µM | > 100 µM | > 100 µM | 72.8 µM | > 100 µM | – | 70.9 µM | > 100 µM | – | – | – | – | – | – | – |
| O=C1/C(=C/c2ccc(Cl)cc2)N=C(c2ccccc2)N1c1ccc(S(=O)(=O)Nc2nccs2)cc1 | 75.2 µM | > 100 µM | > 100 µM | > 100 µM | 55.9 µM | > 100 µM | > 100 µM | > 100 µM | > 100 µM | 56.3 µM | > 100 µM | > 100 µM | > 100 µM | – | – | – | – | – | – | – |
| COc1ccc(Cc2nccc3cc(OC)c(OC)cc23)cc1OC | > 100 µM | > 100 µM | > 100 µM | > 100 µM | > 100 µM | > 100 µM | > 100 µM | > 100 µM | > 100 µM | > 100 µM | – | > 100 µM | > 100 µM | – | – | – | – | – | – | – |
| O=C(O)c1oc(C(=O)O)c(C(=O)O)c1C(=O)O | > 100 µM | > 100 µM | > 100 µM | – | > 100 µM | > 100 µM | > 100 µM | – | > 100 µM | > 100 µM | > 100 µM | > 100 µM | > 100 µM | – | – | – | – | – | – | – |
| CCCCC(=O)Oc1ccc2c(C)cc(=O)oc2c1 | > 100 µM | > 100 µM | > 100 µM | > 100 µM | > 100 µM | > 100 µM | > 100 µM | – | > 100 µM | > 100 µM | > 100 µM | > 100 µM | > 100 µM | – | – | – | – | – | – | – |
| c1ccc(-c2nnc(-c3nsc4ccccc34)o2)cc1 | – | – | > 100 µM | 19.7 µM | – | > 100 µM | > 100 µM | – | – | > 100 µM | – | > 100 µM | – | – | – | – | – | – | – | – |
| O=C(O)C12CCCC(CCC1)C2 | – | – | > 100 µM | > 100 µM | – | > 100 µM | > 100 µM | > 100 µM | > 100 µM | > 100 µM | > 100 µM | > 100 µM | – | – | – | – | – | – | – | – |
| CCOC(=O)C1=C(C)N(NC(N)=O)C2(O)CCCC(=O)C12C (stereo unspecified) | – | – | > 100 µM | > 100 µM | – | > 100 µM | > 100 µM | > 100 µM | – | > 100 µM | > 100 µM | > 100 µM | – | – | – | – | – | – | – | – |
| CCCCS(=O)(=O)Nc1ccc(Nc2c3ccccc3nc3ccccc23)c(OC)c1 | – | 22 µM | 11.3 µM | 7.69 µM | – | 16.4 µM | 5.77 µM | 16.9 µM | 5.79 µM | 6.37 µM | 7.99 µM | 3.85 µM | – | – | – | – | – | – | – | – |
| c1ccc(C[n+]2cccc(-c3cc4ccccc4[nH]3)c2)cc1 | > 100 µM | > 100 µM | 71 µM | > 100 µM | > 100 µM | 38 µM | 42.6 µM | > 100 µM | > 100 µM | > 100 µM | 34.1 µM | 37.9 µM | > 100 µM | – | – | – | – | – | – | – |
